Experimental data as given in ChEMBL document CHEMBL1811889, “Quinoline-4-methyl esters as human nonpancreatic secretory phospholipase A₂ inhibitors” (Bioorg Med Chem, 2011).

Biological target: T1, Phospholipase A2, membrane associated (Homo sapiens, UniProt P14555)
T1 sequence (P14555 whole entry): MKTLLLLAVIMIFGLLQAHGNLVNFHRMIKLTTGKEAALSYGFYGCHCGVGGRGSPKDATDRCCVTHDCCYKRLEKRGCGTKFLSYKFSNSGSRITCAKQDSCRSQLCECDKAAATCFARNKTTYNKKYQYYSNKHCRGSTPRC
Test: Inhibition of human non-pancreatic sPLA2 using 1,2-dimyristoyl-sn-glycero-3-phosphocholine substrate after 5 mins by continuous fluorescence assay; call rule not given here

Row | IC50 (read-out: IC50) [µM] | IC50 | SMILES
1 | 6 | – | COC(=O)c1cc(-c2ccc(OC)cc2)nc2ccc(F)cc12
2 | 27 | – | CCCOc1ccc(-c2cc(C(=O)OC)c3cc(OC)ccc3n2)cc1
3 | 34 | – | COC(=O)c1c(Cc2ccccc2)c(C)nc2ccc(OC)cc12
4 | 2 | – | COC(=O)c1cc(-c2ccccc2)nc2ccc(OC)cc12
5 | 2.3 | – | COC(=O)c1cc(Cc2ccccc2OC)nc2ccc(F)cc12
6 | 15 | – | COC(=O)c1cc(-c2ccc(OC)cc2)nc2ccc(OC)cc12
7 | – | Not Active | CCCCCOc1ccc(-c2cc(C(=O)OC)c3cc(OC)ccc3n2)cc1
8 | – | Not Active | COC(=O)c1c2c(nc3ccccc13)CCCC2
9 | – | Not Active | COC(=O)c1c2c(nc3ccc(F)cc13)CCCC2
10 | 57 | – | CCCCOc1ccc(-c2cc(C(=O)OC)c3cc(OC)ccc3n2)cc1
11 | 2.8 | – | COC(=O)c1c(Cc2ccccc2)c(C)nc2ccc(Cl)cc12
12 | 44 | – | CCCCOc1ccc(-c2cc(C(=O)OC)c3ccccc3n2)cc1
13 | 2.9 | – | COC(=O)c1c(-c2ccccc2)c(C)nc2ccc(Cl)cc12
14 | 8.1 | – | COC(=O)c1cc(-c2ccc(OC)cc2)nc2ccc(Cl)cc12
15 | – | Not Active | CCCCCCOc1ccc(-c2cc(C(=O)OC)c3cc(OC)ccc3n2)cc1
16 | 1.5 | – | COC(=O)c1cc(CCc2ccccc2)nc2ccc(OC)cc12
17 | 1 | – | COc1ccc2c(c1)c(CC(N)=O)c(C)n2Cc1ccccc1
18 | 1.8 | – | COC(=O)c1cc(CCc2ccccc2)nc2ccc(Cl)cc12
19 | – | Not Active | COC(=O)c1c2c(nc3ccc(Cl)cc13)CCCC2
20 | 16 | – | COC(=O)c1c(Cc2ccccc2)c(C)nc2ccc(F)cc12
21 | 12 | – | COC(=O)c1cc(CCc2ccccc2)nc2ccc(F)cc12
